Results from patent publication US9498477B2, “Compositions and uses thereof to ameliorate pain” (Purdue Research Foundation, priority 2011, dated 2016).

Experiments:
[1] = test system: Sprague Dawley rats models of spinal contusion injury; conditions: chronic SCI (5 months), single intraperitoneal dose 5 mg/kg body weight
Description: (§1) Spinal contusion injury. Sprague Dawley rats are subjected to a spinal contusion injury according to the procedure described by Basso et al., Graded histological and locomotor outcomes after spinal cord contusion using the NYU weight-drop device versus transaction, Exp Neurol. […] After 20 weeks, the animals are divided into untreated injury and treated injury groups, each of which is compared to an uninjured control.
Test compound treatment. […] The solution is sterilized through a filter and stored at 4° C. […] Untreated animals are administered saline vehicle intraperitoneally. Blood pressures are monitored using a CODA 2 system (Kent Scientific Corp.).
Mechanical allodynia evaluation. Sprague Dawley rats models of spinal contusion injury are divided into untreated injury and treated injury groups. The untreated injury groups are injected daily with vehicle as described herein. The treated injury groups are injected daily with test compound as described herein. Uninjured controls, untreated injury groups, and treated injury groups are evaluated for pain according to the procedure described by Choi et al., Behavioral signs of ongoing pain and cold allodynia in a rat model of neuropathic pain, Pain 59:369-376 (1994).

[2] = test system: Sprague Dawley rats models of spinal contusion injury; conditions: chronic SCI (5 months), single intraperitoneal dose 5 mg/kg body weight; remark: listed apart in the source
Description: as §1
Test compound treatment. A solution of test compound, such as hydralazine hydrochloride (Sigma), is prepared with phosphate buffered saline. The solution is sterilized through a filter and stored at 4° C. […] Untreated animals are administered saline vehicle intraperitoneally. Blood pressures are monitored using a CODA 2 system (Kent Scientific Corp.).
Cold allodynia evaluation. Sprague Dawley rats models of spinal contusion injury are divided into untreated injury and treated injury groups. The untreated injury groups are injected daily with vehicle as described herein. The treated injury groups are injected daily with test compound as described herein. Uninjured controls, untreated injury groups, and treated injury groups are evaluated for pain according to the procedure described by Choi et al., Behavioral signs of ongoing pain and cold allodynia in a rat model of neuropathic pain, Pain 59:369-376 (1994).

NNc1nncc2ccccc12 [hydralazine]
time to improvement of mechanical allodynia after the injection [1]: ≤ 2 days | duration of efficacy of the treatment, mechanical allodynia ([1]; FIG. 2 panel A): at least 10 days | time to improvement of cold-induced pain after the injection [2]: ≤ 2 h | duration of efficacy of the treatment, cold allodynia ([2]; FIG. 2 panel B): at least 10 days
